“Also recorded” adds a separate entry of the source. No end group written: not given here.
Key:
Cyclin B = test: Western of APC substrate abundance in PDX tumor; type: in vivo, mouse; conditions: 25 mg/kg, after sacrifice on Day 6
Description: (§1) A. In vivo study of M2I-1 impact on human breast tumor (4-28 PDX). Single 25 mg/kg i.p. injection (treatment) versus mock (DMSO) day 1, tumor size measured daily. B. Western analysis of apoptosis (PARP cleavage—24 kDa band) and APC substrate abundance (Cyclin B) in liver and tumor of treated and control after sacrifice on Day 6.
(§2) A mouse model for growing patient derived breast tumor cells obtained from a patient with triple negative breast cancer was developed. This patient had developed resistance to Doxorubicin. Tumors growing in these mice grow rapidly. A mouse was injected with 25 mg/kg M2I-1.

[1] = tested on: human breast tumor (4-28 PDX); test: Tumor growth in mouse model of patient derived triple negative breast cancer (4-28 PDX); type: in vivo; conditions: single 25 mg/kg i.p. injection, Doxorubicin resistant TNBC PDX mouse
Description: as §1, §2

[2] = tested on: OSW canine lymphoma cells; test: Trypan Blue viability of drug resistant OSW lymphoma cells; type: cell-based; conditions: OSW dog lymphoma cells selected for drug resistance; 1 μmol M2I-1 (18 hrs) then 1 μmol DOX (48 hrs)
Description: (§3) A. Parental MCF7 human breast cancer cells, or cells selected for resistance to Tamoxifen, were treated with 1 or 5 μM M2I-1. Tamoxifen resistant cells were also treated with both Doxorubicin and M2I-1. Trypan Blue. (3 rpts). ND, no data. B. Protein lysates were prepared from the cells used in A. The APC target HURP was measured using antibodies against HURP. C. Trypan Blue was used to measure viability of OSW canine lymphoma cells pretreated with 1 μmol M2I-1 (18 hrs), followed by 1 μmol DOX (48 hrs). Parental cells were only treated with monotherapy (3 rpts). ND, no data. D. OSW matched cells treated with the APC activator M2I-1 were prepared for APC substrate westerns E. Quantification of western protein abundance (3 rpts).
(§4) Drug resistant human breast cancer cells in culture were treated with the M2I-1 activator.

HURP = test: Western of APC substrates in drug resistant MCF7 cells; type: cell-based; conditions: drug resistant human breast cancer cells
Description: as §3, §4

[3] = tested on: MCF7 human breast cancer cells selected for resistance to Tamoxifen; test: Trypan Blue viability of drug resistant MCF7 breast cancer cells; type: cell-based
Description: as §3, §4

apc10Δ cells = test: Spot dilution growth of apc10Δ cells expressing peptides; type: cell-based, yeast; conditions: 30 and 34° C.
Text: A. Y2H cells expressing the APC subunit bait and the galactose inducible Apc10 peptide prey grown on glucose or galactose. Cells co-expressing the Apc5 or Apc10-bait and Apc10 aptamer-prey vectors were spotted onto the appropriate media, in the presence or absence of galactose (the aptamers are Gal inducible), to confirm 2-hybrid interactions. Growth on trp-his-media ensures both plasmids are maintained. A 2-hybrid interaction will drive expression of the ADE2 gene, allowing growth on ade-media. B. Aptamers that bind Apc10 can suppress APC mutant phenotypes. Spot dilutions of apc10Δ cells expressing an empty vector control or the one of 6 Apc10 aptamers tested. Log phase cells were 10-fold serially diluted and spotted onto plates containing either 2% glucose or 2% galactose. The plates were then incubated at 30° C. (permissive temperature) and 34° C. (restrictive stress). C. Peptides identified as binding to the yeast Apc10 APC subunit using the yeast 2-hybrid screen increase growth of cells on stress conditions. A series of APC binding peptides were transformed into wild type yeast cells, spot diluted, and grown at 30° C. on media supplemented with the normal carbon source (2% glucose). Alternatively, cells were grown on media supplemented with 2% galactose to induce a carbon stress. D. Peptides were expressed in apc5^ts temperature sensitive cells and grown on glucose or galactose media at 30° C.
The cells were exposed to 5 sec of UV from a UV box prior to incubation.
The six peptide expressing vectors were transformed into apc10Δ cells and assessed for temperature sensitive growth. Two of the peptides, C43-4 and C2-4B, suppressed the apc10Δ growth phenotype at 30 and 34° C. (FIG. 1B-D). […]
Over 100 peptides that bound either Apc5 or Apc10 were recovered from millions screened. […] Vectors expressing these 6 peptides were transformed into APC mutant cells and assessed for ts growth.
Methods • 1. […] The growth of the cells was determined by measuring the optical density (OD) of the cells at 600 nm (OD600) • 3. […]

WT cells = test: Chronological lifespan of WT yeast cells; type: cell-based
Description: (§5) A. apc5^CA (temperature sensitive allele) cells were transformed with C43-4, C2-4B or an empty vector. Cells grown overnight in 2% Glu were struck onto 2% Glucose plates and used for the yeast replicative lifespan (RLS) assay. B. Wild type (WT) cells transformed with C43-4, C2-4B or an empty vector were grown to stationary phase in 2% Glu media, then after 2 days spot diluted onto 2% Glu or 2% Gal to induce expression of the aptamers.
(§6) The six peptide expressing vectors were transformed into apc10Δ cells and assessed for temperature sensitive growth. Two of the peptides, C43-4 and C2-4B, suppressed the apc10Δ growth phenotype at 30 and 34° C. (FIG. 1B-D). […] However, C43-4 and C2-4B increased replicative and chronological lifespan in both apc5^CA and WT cells, respectively (FIG. 2A). […] H2O2 induces oxidative stress whereas galactose induces a carbon stress.

[4] = tested on: wild type (WT) yeast cells; test: Spot dilution growth and stress resistance of wild type yeast cells expressing peptides; type: cell-based
Description: as §5
The cells were exposed to 5 sec of UV from a UV box prior to incubation. The plus signs define growth compared to the empty vector control.
as §6
These cells were spot diluted on Trp-plates and grown at the temperatures shown and/or exposed to ultraviolet (UV) irradiation (FIG. 11). At low level expression on glucose, some of the mutations caused stress dependent phenotypes.
Methods • 1. Cells were cultured overnight in Trp-2% glucose media • 2. The growth of the cells was determined by measuring the optical density (OD) of the cells at 600 nm (OD600) • 3. Cells were diluted to OD600 of 1 with fresh culture media • 4. 100 ul of each culture was pipetted into a well of a 96 well plate • 5. 10 ul of the each starting culture was pipetted into 90 ul of water in 4 additional wells to make a 10-fold serial spot dilution • 6. 5 ul from each serial dilution was spotted onto plates containing standard growth media with either 2% glucose or 2% galactose using a multi-pipettor • 7. The plates were exposed to UV • 8. The plates were then placed at room temperature, 30, 34 or 37° C. for 3-7 days • 9. The plates were scanned and saved as tiff files

Apc10 = target: T1, Apc10 (Saccharomyces cerevisiae, UniProt P53068); test: Yeast 2-hybrid (Y2H) binding of peptide prey to Apc10 bait; conditions: galactose-inducible Trx-scaffold peptide prey
T1 construct: expressed in transfected cells; host or cells: yeast Y2H cells
T1 sequence (P53068 1-250): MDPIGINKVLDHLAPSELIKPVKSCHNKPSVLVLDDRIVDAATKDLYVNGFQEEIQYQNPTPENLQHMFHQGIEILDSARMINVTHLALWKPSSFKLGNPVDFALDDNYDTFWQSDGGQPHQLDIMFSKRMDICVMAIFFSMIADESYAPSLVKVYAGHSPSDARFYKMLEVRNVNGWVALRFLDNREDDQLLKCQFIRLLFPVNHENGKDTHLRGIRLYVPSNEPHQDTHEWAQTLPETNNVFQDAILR
Description: (§7) The reverse genetic screen utilized a yeast 2-hybrid (Y2H) protocol that selected for peptides that bound to the APC subunits Apc5 or Apc10 (see FIG. 5 for APC structure), to assess whether peptide-binding might modify APC function. Peptides that bound APC subunits were then assayed for those that suppressed APC mutant defects.
A library of random small peptides were cloned into a Thioredoxin (Trx) scaffold (see FIG. 6 for Trx-aptamer structure) and expressed from a galactose-inducible Y2H prey vector in cells expressing the Apc10 bait vector (the modified Apc10 is still part of the complete APC complex). Six peptides that reproducibly interacted with the Apc10 bait construct in Y2H assays were identified (FIG. 1A) and were examined further.
(§8) Random small peptides were cloned into the TrxA scaffold (library provided by R. Geyer, U of S) and expressed from a galactose-inducible Y2H prey vector in cells harboring either APC5 or APC10 Y2H bait vectors (APC5/APC10 bait constructs complement APC mutant defects).
(§9) Over 100 peptides that bound either Apc5 or Apc10 were recovered from millions screened. Six peptides that reproducibly interacted with the Apc10 bait construct in Y2H assays were examined further. Vectors expressing these 6 peptides were transformed into APC mutant cells and assessed for ts growth.

[5] = tested on: APC mutant (apc5 temperature sensitive mutant and/or apc10Δ mutant); test: Viability/growth of APC mutant yeast cells; type: cell-based
Description: (§10) A. apc5^CA cells expressing small peptides were assayed for replicative life span (RLS). B. Cells expressing HTZ1 were grown under stress conditions. HTZ1 expression, even at low levels, suppresses apc5^CA and apc10Δ defects. The cells shown were transformed with either an empty vector or GAL inducible HTZ1. On 2% glucose, the construct is weakly expressed, and this is enough to increase growth of APC mutants at 30° C.
Examples of yeast cells with defective anaphase promoting complex (APC) function include apc5 and apc10 mutants. An example of an apc5 mutant is the apc5 temperature sensitive mutant described herein. An example of an apc10 mutant is the apc10 deletion mutant described herein.
as §7, §9

wheat embryos = test: Expression of C43-4 in wheat embryos: localization and germination; type: in vivo; conditions: versus empty vector controls
Description: (§11) A. Wheat embryos were transformed with an expression vector harboring the C43-4-HA peptide fused to the red fluoresce protein (RFP), or an RFP empty vector, using a ballistic shotgun approach. Embryos were imaged using fluorescence to view RFP. B. Protein lysates were prepared from the transformed embryos and subjected to western analyses using antibodies against the APC substrate Securin. A nonspecific protein band is used to control for protein load.
C43-4 was subcloned into a plant vector and expressed in wheat embryos.
The wheat embryos (scutella) were transformed using a Biolistics-mediated transformation of wheat embryos. Wheat embryos were inoculated with Agrobacterium harbouring an RFP expression vector. Following inoculation with Agrobacterium, embryos were placed on a medium that allows for growth of both the embryos and the Agrobacterium. Timentin was used for killing remaining A. tumefaciens cells after co-cultivation.
Germination rate was determined as a function of time to observe growth from the embryo and on average, the transformed embryos containing the peptide germinated before empty vector controls. […] Accordingly, the Htz1-like peptide (C43-4) activates the APC in plants.

apc5^CA cells = test: Yeast replicative lifespan (RLS) assay; type: cell-based
Description: as §5, §10

Securin = test: Western of APC substrate in transformed wheat embryos; type: cell-based
Description: as §11
APC targets APC substrates for degradation such that the relative levels provides an indication of APC activity in a cell. For example, if the substrates are reduced, without being bound by any theory, it is believed to mean that the APC is working better.

APC = test: Yeast 2-hybrid binding to the APC
Text: As used herein, the expression “binds to the APC” refers to a peptide that binds to at least one subunit of the APC, for example Apc5 or Apc10. Binding can be measured for example, by any method known in the art, including, but not limited to a yeast 2-hybrid assay.
as §7, §8

Cin5 = target: T2, Cin5 (Saccharomyces cerevisiae, UniProt P40917); test: Yeast 2-hybrid with Y65 bait to identify binding partners
T2 construct: expressed in transfected cells; host or cells: yeast Y2H cells
T2 sequence (P40917 1-295): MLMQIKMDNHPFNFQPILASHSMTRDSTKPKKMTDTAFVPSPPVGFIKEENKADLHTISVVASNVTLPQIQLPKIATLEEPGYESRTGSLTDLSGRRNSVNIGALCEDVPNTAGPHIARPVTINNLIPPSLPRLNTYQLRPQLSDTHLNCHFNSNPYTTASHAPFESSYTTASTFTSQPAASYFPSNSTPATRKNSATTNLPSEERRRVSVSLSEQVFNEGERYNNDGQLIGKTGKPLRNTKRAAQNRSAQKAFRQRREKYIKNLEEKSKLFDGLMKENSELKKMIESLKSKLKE
Text: One peptide in particular, Y65, was of interest because it had homology to Elongin C (Elc1; Y65 is 20 amino acids in length, with a 7 residue stretch sharing 86% identity and 100% similarity with Elc1). Elc1 is a ubiquitin-protein ligase (E3) conserved among eukaryotes that is involved in DNA repair (Harreman et al, 2009; Ribar et al, 2007). To identify what the peptides bound in order to modify APC activity, Y65 was cloned into the Y2H bait vector and used to identify binding partners.

[6] = tested on: apc5^CA temperature sensitive mutant; test: Forward genetic screen: rescue of apc5^CA temperature sensitive growth; type: cell-based, yeast
Text: Using a forward genetic screen to test whether temperature sensitive (ts) APC mutants expressing random small peptides could grow at restrictive temperatures, millions of small peptides were rapidly screened for those that could restore mutant APC phenotypes. Peptides that rescued the apc5^CA ts (temperature sensitive) defect were recovered including peptides Y65 and Y36.
In the forward screens, with galactose-inducible TrxA-based peptide libraries, in cells harboring the apc5^CA ts allele, over 200 peptides (from millions screened) suppressed the ts phenotype. Several recovered plasmids were sequenced.

`CC(C)CN(CC(C)C)c1ccc(C=C2C(=O)NC(=S)NC2=O)cc1[N+](=O)[O-]` [M2I-1, Mad2 Inhibitor-1] was tested, and the “Markers of APC substrates in the tumor” value (Cyclin B) was “positive for APC activation”, the Tumor growth [1] was “stalled” and the “Cell killing in combination with chemotherapy” value [2] was “only in the presence of M2I-1 were cells killed”. For the same molecule, the “Levels of APC substrates” value (HURP) was “reduced”, the “Growth / toxicity of activator alone in drug resistant breast cancer cells” value ([3]; 1 or 5 μM, 18 hrs, Trypan Blue) was “did not impair the growth; also recorded: not toxic” and the “Cell killing / toxicity in combination with chemotherapy (Doxorubicin)” value ([3]; Tamoxifen resistant MCF7 cells) was “only in the presence of M2I-1 were cells killed; also recorded: enhances toxicity”.

For “NGSSHNDLRVRRLTLISRLC (also: expressed in thioredoxin scaffold) [C43-4, Peptide aptamer expressed from Thioredoxin scaffold; residues 2-14 homologous to Htz1]”, the apc10Δ growth phenotype (apc10Δ cells) was “suppressed”, the Chronological lifespan (WT cells) was “increased” and the “Log phase growth of wild type (WT) cells” value ([4]; 30° C.) was “Neither C43-4 nor C2-4B influenced”. For the same molecule, the “Stress resistance at low level expression” value ([4]; WT cells on glucose, temperature and/or UV stress, versus empty vector) was “increased stress resistance”, the “Stress resistance when overexpressed in WT yeast cells” value ([4]; overexpressed, H2O2 oxidative stress, galactose carbon stress) was “increased stress resistance” and the “Binds Apc10 in a yeast 2 hybrid assay” value (Apc10) was “Binds Apc10”. The “Viability of an APC mutant” value [5] was “increases the viability”, the “Germination of transformed wheat embryos” value (wheat embryos) was “germinated faster” and the Replicative lifespan (apc5^CA cells) was “increased”. For the same molecule, the “Level of tested APC substrate in the embryo” value (Securin) was “reduced level”.

In the case of “VRQKSDKEYERVLGLGLRRL [Y65, Peptide with homology to Elc1]”, the “Binding to the APC in a yeast 2HY assay” value (APC) was “not bind the APC in a yeast 2HY”, the “Interaction with Cin5 in a yeast 2 hybrid assay” value (Cin5) was “One peptide binding partner was isolated, Cin5; also recorded: Interacts with Cin5 in a yeast 2” and the “apc5^CA temperature sensitive (ts) growth / viability of an apc5 temperature sensitive mutant” value [6] was “increases the viability; also recorded: rescued; also recorded: Rescues apc5^CA temperature”.
